Source: US8759400B2, “Histone deacetylase inhibitors for enhancing activity of antifungal agents” (MethylGene Inc., priority 2005, dated 2014)

How the values were obtained:
C. glabrata (ATCC 90030) = experiment: MIC80 and checkerboard synergy with antifungal agents; type: cell-based, Candida glabrata; conditions: C. glabrata (ATCC 90030); for MIC50 / MIC: Nakaseomyces glabratus, ATCC90030, compound alone; for MIC: read-out: MIC80
HMEC = experiment: Mammalian cytotoxicity, MTT reduction
C. albicans (ATCC 90028) = experiment: MIC80 and checkerboard synergy with antifungal agents; type: cell-based, Candida albicans; conditions: Candida albicans, ATCC90028; compound alone; C. albicans (ATCC 90028); read-out: MIC80
HDAC [1] = experiment: HDAC inhibitory activity in fungal protoplasts (Fluor-de-Lys); type: cell-based, Candida glabrata; conditions: C. glabrata protoplasts; for HDAC inhibition, per cent in parentheses beside IC50 >20: concentration not given
Protocol: (§1) Protoplasts of C. albicans and C. glabrata are prepared by the […] method of Franzusoff et al.

HDAC [2] = experiment: as above; type: cell-based, Candida albicans; conditions: C. albicans protoplasts; for HDAC inhibition, per cent in parentheses beside IC50 >20: concentration not given
Protocol: as §1

A. fumigatus ATCC 1022 = experiment: MIC80 and checkerboard synergy, broth microdilution (NCCLS M38-A); type: cell-based, Aspergillus fumigatus; conditions: with ketoconazole; A. fumigatus ATCC 1022; 48 hours

O=C(Cc1ccc(CCCCCc2ccccc2)cc1)NO was tested, and the MIC50 (C. glabrata (ATCC 90030)) was 6.25 µg/mL.

O=C(Cc1ccc(CCCCc2ccc(C(F)(F)F)cc2)cc1)NO was tested, and the MIC50 (C. glabrata (ATCC 90030)) was over 25 µg/mL.

For O=C(Cc1cccc(CCCCc2ccccc2)c1)NO, the MIC50 (C. glabrata (ATCC 90030)) was 32 µg/mL.

With O=C(Cc1ccc(CCC#Cc2ccc3nonc3c2)cc1)NO the MIC50 (C. glabrata (ATCC 90030)) was over 25 µg/mL.

Work on O=C(Cc1ccc(CCCCc2ccc3c(c2)OCO3)cc1)NO yielded an MIC50 (C. glabrata (ATCC 90030)) of over 25 µg/mL.

O=C(Cc1ccc(CCCCc2ccccc2C(F)(F)F)cc1)NO showed an MIC50 (C. glabrata (ATCC 90030)) of 12.5 µg/mL.

Compound O=C(Cc1ccc(CCCCc2cccc(C(F)(F)F)c2)cc1)NO has an MIC50 (C. glabrata (ATCC 90030)) of 12.5 µg/mL.

O=C(Cc1ccc(CCCCc2cc(F)c(F)cc2F)cc1)NO was tested, and the MIC50 (C. glabrata (ATCC 90030)) was 3.1 µg/mL.

Compound O=C(Cc1ccc(CCCCc2ccc3[nH]ccc3c2)cc1)NO has an MIC50 (C. glabrata (ATCC 90030)) of over 25 µg/mL.

With O=C(CCCCCC/C(=N\O)c1ccc(-c2ccccc2)cc1)NO the “MTT HMEC” value (HMEC) was 6 µM.

With O=C(NO)c1cccc(CCCc2ccccc2)c1 [Cpd 1] the MIC (C. albicans (ATCC 90028)) was over 16 µg/mL, the “HDAC inhibition IC50” value (HDAC [1]) was over 20 µg/mL and the “HDAC inhibition, per cent in parentheses beside IC50 >20” value (from here on “HDAC inhibition, per cent”) (HDAC [1]) was 38%. For the same compound, the “HDAC inhibition IC50” value (HDAC [2]) was 9.1 µg/mL.

With O=C(NO)c1ccc(CCCCCc2ccccc2)cc1 [Cpd 3] the “MTT HMEC” value (HMEC) was 9 µM.

With O=C(Cc1ccc(CCCc2ccccc2)cc1)NO [Cpd 5] the MIC (C. albicans (ATCC 90028)) was over 8 µg/mL, the MIC (C. glabrata (ATCC 90030)) was over 50 µg/mL and the “HDAC inhibition IC50” value (HDAC [1]) was over 20 µg/mL. For the same compound, the “HDAC inhibition, per cent” value (HDAC [1]) was 37%, the “conc. for 4-fold synergy” value (A. fumigatus ATCC 1022) was 4 µg/mL and the “MTT HMEC” value (HMEC) was 47 µM. For the same compound, the “HDAC inhibition IC50” value (HDAC [2]) was over 20 µg/mL and the “HDAC inhibition, per cent” value (HDAC [2]) was 42%.

O=C(CCc1ccc(CCc2ccccc2)cc1)NO [Cpd 7] was tested, and the MIC (C. albicans (ATCC 90028)) was over 8 µg/mL, the MIC (C. glabrata (ATCC 90030)) was 16 µg/mL and the “HDAC inhibition IC50” value (HDAC [1]) was over 20 µg/mL. The “HDAC inhibition, per cent” value (HDAC [1]) was 27%, the “MTT HMEC” value (HMEC) was 10 µM and the “HDAC inhibition IC50” value (HDAC [2]) was over 20 µg/mL. For the same compound, the “HDAC inhibition, per cent” value (HDAC [2]) was 15%.

COC(c1ccc(N(C)C)cc1)C(C)/C=C(C)/C=C/C(=O)NO (stereo not shown) [Cpd 10] was tested, and the “MTT HMEC” value (HMEC) was 50 µM.

In the case of COc1ccc(C(OC)C(C)(C)CCCCC(=O)NO)cc1 (stereo not shown) [Cpd 11], the “HDAC inhibition IC50” value (HDAC [1]) is reported as 50 µg/mL and the “MTT HMEC” value (HMEC) is reported as 50 µM.

CC(/C=C/C(=O)NO)=C\C(C)Cc1ccc(N(C)C)cc1 (stereo not shown) [Cpd 12] was tested, and the “conc. for 4-fold synergy” value (A. fumigatus ATCC 1022) was 0.125 µg/mL and the “MTT HMEC” value (HMEC) was 44 µM.

For C[C@H](/C=C/C=C/C(=O)NO)Oc1ccc(-c2ccccc2)cc1 [Cpd 15], the “HDAC inhibition IC50” value (HDAC [2]) was over 20 µg/mL and the “HDAC inhibition, per cent” value (HDAC [2]) was 18%.

In the case of O=C(NO)c1ccc(CCCC(O)c2ccc3ccccc3c2)cc1 (stereo not shown) [Cpd 16], the “MTT HMEC” value (HMEC) is reported as 25 µM.

For O=C(/C=C/c1ccc(CNc2cccc(Cl)c2)cc1)NO [Cpd 18], the “HDAC inhibition IC50” value (HDAC [2]) was about 16 µg/mL.

In the case of Nc1ccc(-c2cccs2)cc1-c1cccs1 [Cpd 19], the “conc. for 4-fold synergy (24 hr)” value (C. glabrata (ATCC 90030); with ketoconazole, 24 hr) is reported as 0.5 (24 hr) μg/ml.

For O=C(Cc1ccccc1)NC(=S)Nc1ccc(Nc2ccnc3ccsc23)cc1 [Cpd 20], the “MTT HMEC” value (HMEC) was 50 µM, the “HDAC inhibition IC50” value (HDAC [2]) was over 20 µg/mL and the “HDAC inhibition, per cent” value (HDAC [2]) was 16%.

With N#Cc1ccc(-c2ccc(OCCC(=O)NO)cc2)cc1 [Cpd 21] the “MTT HMEC” value (HMEC) was 50 µM.

In the case of O=C(NO)c1ccc(CN2c3ccccc3NC(=O)[C@H]2Cc2ccc3ccccc3c2)cc1 [Cpd 22], the “MTT HMEC” value (HMEC) is reported as 8 µM and the “HDAC inhibition IC50” value (HDAC [2]) is reported as about 0.6 µg/mL.
